The numbers were not newly measured in patent US8278478B2, “Process for the synthesis of hydrochloride salt of N-fatty acylsubstituted amino acid ethyl esters” (priority 2009, dated 2012), which cites them from elsewhere.

Each structure is given as a SMILES string.

The conditions of the data set: at 20° C.

For `CCCCCCCCCCCC(=O)N[C@@H](CCCNC(=N)N)C(=O)OCC.Cl` [Ethyl lauroyl arginate, ethyl-Nα-lauroyl-L-arginate HCl], the solubility in water entry is listed as “greater than 247 g/kg”.
